44 molecules from the pKa sets of Baltruschat and Czodrowski (2020) can be followed below.

Usually pKa stands for the negative logarithm of the acid dissociation constant.

Structures are written as SMILES.

`CCN(CC)CCOC(=O)c1ccc(N)cc1`: the pKa came to 9.04.
Next, `CN(C)CCC=C1c2ccccc2CCc2ccccc21`: 9.49; `CC(C)NCC(O)COc1ccc(COCCOC(C)C)cc1` (centres undefined): 9.57; `CCC1OC(=O)CC(O)C(C)C(CC=O)(OC2OC(C)CC(N(C)C)C2O)CC(C)C(=O)C=CC(C)=CC1C` (centres undefined): 8.83.
Next, `CN/C(=C\[N+](=O)[O-])NCCSCc1ccc(CN(C)C)o1`: 8.31; `CC(NC(CCc1ccccc1)C(=O)O)C(=O)N1CCCC1C(=O)O` (centres undefined): 7.84.
Next, `CC[C@H]1OC(=O)[C@@H](C)[C@H](O[C@H]2C[C@](C)(OC)[C@H](O)[C@@H](C)O2)[C@@H](C)[C@@H](O[C@@H]2O[C@H](C)C[C@@H](N(C)C)[C@@H]2O)[C@](C)(O)C[C@@H](C)C(=O)[C@@H](C)[C@@H](O)[C@]1(C)O`: 8.8; `COC1C(OC(C)=O)CC(=O)OC(C)CC2OC2/C=C/C(=O)C(C)CC(CC=O)C1OC1OC(C)C(O)C(N(C)C)C1O` (centres undefined): 8.44.
Molecule `CC(C)n1c(/C=C/[C@H](O)C[C@H](O)CC(=O)O)c(-c2ccc(F)cc2)c2ccccc21` displayed a pKa of 4.31.
Next, `N#Cc1ccc2c(c1)N(CCCCN1CCC(O)CC1)c1ccccc1S2`: 8.76; `CC(C)(C)c1ccc(C(O)CCCN2CCC(C(O)(c3ccccc3)c3ccccc3)CC2)cc1` (centres undefined): 9.86.
Next, `Cc1cc(=O)oc2cc(C3OC(C(=O)O)C(O)C(O)C3O)ccc12` (centres undefined): 2.82; `CCC1OC(=O)CC(O)C(C)C(OC2OC(C)C(O)C(N(C)C)C2O)C(CC=O)CC(C)C(=O)C=CC(C)=CC1COC1OC(C)C(O)C(OC)C1CC` (centres undefined): 8.36.
For `COc1ccc([C@@H]2Sc3ccccc3N(CCN(C)C)C(=O)[C@@H]2OC(C)=O)cc1`, the pKa stood at 8.02.
Next, `CN(C)CCOC1(c2ccccc2)CC2CCC1(C)C2(C)C` (centres undefined): 9.61; `CC(C)(C)NC[C@H](O)COc1nsnc1N1CCOCC1`: 9.53.
Next, `CCN(CC)C(=O)Nc1ccc(OCC(O)CNC)c(C(C)=O)c1` (centres undefined): 9.66.
Next, `CC(C)(C)NCC(O)COc1ccccc1C1CCCC1` (centres undefined): 9.92.
As to `CO[C@H]1[C@@H](O[C@@H]2O[C@H](C)[C@@H](O[C@H]3C[C@@](C)(O)[C@@H](O[C@@H](O)CC(C)C)[C@H](C)O3)[C@@H](N(C)C)[C@H]2O)[C@@H](CCO)C[C@@H](C)[C@H](O)CC[C@@H]2O[C@H]2C[C@@H](C)O[C@@H](O)C[C@H]1O[C@H](C)O`, the pKa is 7.61.
Next, `CCCN(CCC)S(=O)(=O)c1ccc(C(=O)O)cc1`: 3.01; `CCCCC[C@H](O)/C=C/[C@H]1[C@H](C/C=C/CCCC(=O)O)C(=O)C[C@@H]1O`: 4.77.
Next, `CCC1OC(=O)CC(O)C(C)C(OC2OC(C)C(OC3CC(C)(O)C(O)C(C)O3)C(N(C)C)C2O)C(CC=O)CC(C)C(=O)C=CC(C)=CC1COC1OC(C)C(O)C(OC)C1CC` (centres undefined): 7.73.
Next, `NC(Cc1c[nH]c2ccccc12)C(=O)NC(Cc1c[nH]c2ccccc12)C(=O)O` (centres undefined): 3.38; `CCN(C)C(=O)Oc1cccc(C(C)N(C)C)c1` (centres undefined): 8.8; `CC(C(=O)O)c1ccc(-c2ccccc2)c(F)c1` (centres undefined): 4.03.
Turning to `NC(Cc1c[nH]c2ccccc12)C(=O)NC(Cc1ccccc1)C(=O)O` (centres undefined), the pKa was found to be 3.18.
With `CN(C)CCCOc1nn(Cc2ccccc2)c2ccccc12`, the pKa turned out to be 9.27.
Next, `CC(=O)Oc1c(C)cc(OCC(O)CNC(C)C)c(C)c1C` (centres undefined): 9.54; `NC(CC(=O)O)C(=O)O` (centres undefined): 9.67; `COc1ccccc1OCCNCC(O)COc1cccc2[nH]c3ccccc3c12` (centres undefined): 7.97.
In the case of `C=CCOc1ccccc1OCC(O)CNC(C)C` (centres undefined), the pKa was determined as 9.57.
Next, `CCC(=O)OC(Cc1ccccc1)(c1ccccc1)C(C)CN(C)C` (centres undefined): 9.06; `CN[C@H]1C(O)O[C@H](CO)[C@@H](O)[C@@H]1O` (some centres undefined): 9.6.
Next, `CCOC(=O)[C@H](CCc1ccccc1)N[C@@H](C)C(=O)N1CCC[C@H]1C(=O)O`: 2.92.
Next, `COc1ccc2c3c1O[C@H]1[C@@H](O)C=C[C@H]4[C@@H](C2)NCC[C@@]341`: 9.23.
For the molecule `CC1(C)S[C@@H]2[C@@H](NC(=O)[C@H](N)c3ccc(O)cc3)C(=O)N2[C@H]1C(=O)O`, the pKa came out at 2.6.
Next, `O=C1CC2(CCCC2)CC(=O)N1CCCCN1CCN(c2ncccn2)CC1`: 7.6; `COC1CC(OC2C(C)C(O)OC(C)C(C)C(O)C(C)C(=O)C3(CO3)CC(C)C(OC3OC(C)CC(N(C)C)C3O)C2C)OC(C)C1O` (centres undefined): 8.84.
Next, `CCC1OC(=O)CC(O)CC(OC2OC(C)CC(N(C)C)C2O)C(CC=O)CC(C)C(=O)C=CC2OC2C1C` (centres undefined): 8.79; `CC[C@H]1OC(=O)[C@@H](C)[C@H](O[C@@H]2C[C@](C)(OC)[C@@H](O)[C@@H](C)O2)[C@@H](C)[C@@H](O[C@@H]2O[C@H](C)C[C@@H](N(C)C)[C@@H]2O)[C@](C)(O)C[C@@H](C)/C(=N/OCOCCOC)[C@@H](C)[C@@H](O)[C@]1(C)O`: 9.27; `CCCCC[C@H](O)/C=C/[C@H]1[C@H](CCCCCCC(=O)O)C(=O)C[C@@H]1O`: 4.87.
Next, `CC(C)NCC(O)COc1cccc2[nH]c3ccccc3c12` (centres undefined): 9.52; `CC(C)(C)NCC(O)COc1cccc2c1C[C@H](O)[C@H](O)C2` (some centres undefined): 9.69.
Molecule `CC(Cc1ccc(C(C)(C)C)cc1)CN1CC(C)OC(C)C1` (centres undefined) displayed a pKa of 7.34.
